According to ChEMBL document CHEMBL4507292 (2021):

Key:
[1] = tested on: Tyrosine-protein kinase ABL1 (Homo sapiens), P00519 [F317L]; settings: Compound concentration 1000.0 nM
[2] = target: Tyrosine-protein kinase BTK (Homo sapiens) (UniProt Q06187); settings: Compound concentration 1000.0 nM
[3] = target: Cyclin-dependent kinase 4 (Homo sapiens) (UniProt P11802); settings: Compound concentration 1000.0 nM
[4] = target: Cyclin-dependent kinase 8 (Homo sapiens) (UniProt P49336); settings: Compound concentration 1000.0 nM
[5] = target: Macrophage colony-stimulating factor 1 receptor (Homo sapiens) (UniProt P07333); settings: Compound concentration 1000.0 nM
[6] = target: Casein kinase I isoform delta (Homo sapiens) (UniProt P48730); settings: Compound concentration 1000.0 nM
[7] = target: Serine/threonine-protein kinase DCLK3 (Homo sapiens) (UniProt Q9C098); settings: Compound concentration 1000.0 nM
[8] = tested on: Epidermal growth factor receptor (Homo sapiens), P00533 [UNDEFINED MUTATION]; settings: Compound concentration 1000.0 nM
[9] = tested on: Epidermal growth factor receptor (Homo sapiens), P00533 [L861Q]; settings: Compound concentration 1000.0 nM
[10] = tested on: Epidermal growth factor receptor (Homo sapiens), P00533 [UNDEFINED MUTATION]; settings: Compound concentration 1000.0 nM; remark: listed apart in the source
[11] = target: Receptor tyrosine-protein kinase erbB-2 (Homo sapiens) (UniProt P04626); settings: Compound concentration 1000.0 nM
[12] = target: Tyrosine-protein kinase Fer (Homo sapiens) (UniProt P16591); settings: Compound concentration 1000.0 nM
[13] = tested on: Receptor-type tyrosine-protein kinase FLT3 (Homo sapiens), P36888 [N841I]; settings: Compound concentration 1000.0 nM
[14] = target: G protein-coupled receptor kinase 3 (Homo sapiens) (UniProt P35626); settings: Compound concentration 1000.0 nM
[15] = target: Homeodomain-interacting protein kinase 4 (Homo sapiens) (UniProt Q8NE63); settings: Compound concentration 1000.0 nM
[16] = target: Interleukin-1 receptor-associated kinase 1 (Homo sapiens) (UniProt P51617); settings: Compound concentration 1000.0 nM
[17] = target: Tyrosine-protein kinase JAK2 (Homo sapiens) (UniProt O60674); settings: Compound concentration 1000.0 nM
[18] = target: Mitogen-activated protein kinase 10 (Homo sapiens) (UniProt P53779); settings: Compound concentration 1000.0 nM
[19] = tested on: Mast/stem cell growth factor receptor Kit (Homo sapiens), P10721 [D816V]; settings: Compound concentration 1000.0 nM
[20] = tested on: Mast/stem cell growth factor receptor Kit (Homo sapiens), P10721 [L576P]; settings: Compound concentration 1000.0 nM
[21] = target: Serine/threonine-protein kinase 10 (Homo sapiens) (UniProt O94804); settings: Compound concentration 1000.0 nM
Serine/threonine-protein kinase 10 (Homo sapiens), sequence (O94804 whole entry, looked up): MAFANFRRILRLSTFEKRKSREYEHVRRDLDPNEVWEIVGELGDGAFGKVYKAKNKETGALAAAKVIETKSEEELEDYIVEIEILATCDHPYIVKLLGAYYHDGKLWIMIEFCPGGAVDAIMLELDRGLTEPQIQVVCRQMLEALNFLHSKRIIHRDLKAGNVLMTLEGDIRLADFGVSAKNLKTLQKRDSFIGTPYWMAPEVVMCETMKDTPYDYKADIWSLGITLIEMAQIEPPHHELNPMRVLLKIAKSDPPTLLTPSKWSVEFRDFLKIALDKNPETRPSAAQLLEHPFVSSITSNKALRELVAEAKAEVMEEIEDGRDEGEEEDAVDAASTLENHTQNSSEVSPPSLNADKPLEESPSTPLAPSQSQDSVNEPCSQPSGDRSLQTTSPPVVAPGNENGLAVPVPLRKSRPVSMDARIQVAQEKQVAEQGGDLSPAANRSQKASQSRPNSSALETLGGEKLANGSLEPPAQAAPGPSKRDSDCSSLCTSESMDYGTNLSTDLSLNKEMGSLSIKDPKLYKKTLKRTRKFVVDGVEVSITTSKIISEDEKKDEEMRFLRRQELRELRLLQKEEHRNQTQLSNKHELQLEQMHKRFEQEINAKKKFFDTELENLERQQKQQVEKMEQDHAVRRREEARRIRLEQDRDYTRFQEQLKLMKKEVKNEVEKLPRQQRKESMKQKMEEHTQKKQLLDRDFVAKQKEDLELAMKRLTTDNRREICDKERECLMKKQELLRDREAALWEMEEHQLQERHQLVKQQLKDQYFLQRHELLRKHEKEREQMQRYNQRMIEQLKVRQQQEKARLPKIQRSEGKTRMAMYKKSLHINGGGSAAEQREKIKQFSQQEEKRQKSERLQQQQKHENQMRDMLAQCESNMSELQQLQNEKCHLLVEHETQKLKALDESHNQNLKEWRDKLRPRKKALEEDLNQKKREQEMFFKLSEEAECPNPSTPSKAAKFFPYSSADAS

[22] = target: Mitogen-activated protein kinase kinase kinase 13 (Homo sapiens) (UniProt O43283); settings: Compound concentration 1000.0 nM
[23] = target: Serine/threonine-protein kinase MAK (Homo sapiens) (UniProt P20794); settings: Compound concentration 1000.0 nM
[24] = target: Mitogen-activated protein kinase kinase kinase 3 (Homo sapiens) (UniProt Q99759); settings: Compound concentration 1000.0 nM
[25] = target: Dual specificity mitogen-activated protein kinase kinase 5 (Homo sapiens) (UniProt Q13163); settings: Compound concentration 1000.0 nM
Dual specificity mitogen-activated protein kinase kinase 5 (Homo sapiens), sequence (Q13163 whole entry): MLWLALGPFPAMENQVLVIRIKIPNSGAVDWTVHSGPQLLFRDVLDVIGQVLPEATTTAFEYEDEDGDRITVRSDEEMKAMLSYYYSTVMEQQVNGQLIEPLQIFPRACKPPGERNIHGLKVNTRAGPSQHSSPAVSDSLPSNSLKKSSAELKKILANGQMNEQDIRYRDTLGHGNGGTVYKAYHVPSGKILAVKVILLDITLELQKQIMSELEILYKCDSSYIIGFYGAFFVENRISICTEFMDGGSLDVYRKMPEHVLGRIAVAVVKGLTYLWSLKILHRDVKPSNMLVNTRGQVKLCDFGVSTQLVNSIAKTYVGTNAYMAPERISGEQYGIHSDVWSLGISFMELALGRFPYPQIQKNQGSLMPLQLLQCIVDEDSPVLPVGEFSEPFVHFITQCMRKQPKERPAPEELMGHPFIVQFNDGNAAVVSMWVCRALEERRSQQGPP

[26] = target: Maternal embryonic leucine zipper kinase (Homo sapiens) (UniProt Q14680); settings: Compound concentration 1000.0 nM
[27] = target: Mitogen-activated protein kinase kinase kinase 10 (Homo sapiens) (UniProt Q02779); settings: Compound concentration 1000.0 nM
[28] = target: Mitogen-activated protein kinase kinase kinase 11 (Homo sapiens) (UniProt Q16584); settings: Compound concentration 1000.0 nM
[29] = target: Serine/threonine-protein kinase MRCK alpha (Homo sapiens) (UniProt Q5VT25); settings: Compound concentration 1000.0 nM
[30] = target: Serine/threonine-protein kinase 4 (Homo sapiens) (UniProt Q13043); settings: Compound concentration 1000.0 nM
Serine/threonine-protein kinase 4 (Homo sapiens), sequence (Q13043 whole entry, canonical isoform): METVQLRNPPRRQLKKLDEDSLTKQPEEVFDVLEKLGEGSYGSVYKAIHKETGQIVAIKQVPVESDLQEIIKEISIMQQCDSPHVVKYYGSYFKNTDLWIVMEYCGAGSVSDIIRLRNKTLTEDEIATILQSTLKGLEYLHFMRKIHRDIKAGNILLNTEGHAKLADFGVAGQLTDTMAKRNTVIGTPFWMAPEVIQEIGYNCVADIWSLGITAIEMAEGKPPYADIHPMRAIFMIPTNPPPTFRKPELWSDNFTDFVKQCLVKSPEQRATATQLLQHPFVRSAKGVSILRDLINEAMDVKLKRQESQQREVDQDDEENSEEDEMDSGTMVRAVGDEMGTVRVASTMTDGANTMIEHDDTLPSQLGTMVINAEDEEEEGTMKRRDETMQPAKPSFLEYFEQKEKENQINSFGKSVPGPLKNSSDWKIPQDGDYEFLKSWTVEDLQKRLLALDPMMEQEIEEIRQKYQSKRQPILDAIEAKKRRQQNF

[31] = target: Phosphorylase b kinase gamma catalytic chain, skeletal muscle/heart isoform (Homo sapiens) (UniProt Q16816); settings: Compound concentration 1000.0 nM
[32] = target: Phosphatidylinositol 3-kinase C2 domain-containing subunit gamma (Homo sapiens) (UniProt O75747); settings: Compound concentration 1000.0 nM
Phosphatidylinositol 3-kinase C2 domain-containing subunit gamma (Homo sapiens), sequence (O75747 whole entry, the tested form may be a part, canonical isoform): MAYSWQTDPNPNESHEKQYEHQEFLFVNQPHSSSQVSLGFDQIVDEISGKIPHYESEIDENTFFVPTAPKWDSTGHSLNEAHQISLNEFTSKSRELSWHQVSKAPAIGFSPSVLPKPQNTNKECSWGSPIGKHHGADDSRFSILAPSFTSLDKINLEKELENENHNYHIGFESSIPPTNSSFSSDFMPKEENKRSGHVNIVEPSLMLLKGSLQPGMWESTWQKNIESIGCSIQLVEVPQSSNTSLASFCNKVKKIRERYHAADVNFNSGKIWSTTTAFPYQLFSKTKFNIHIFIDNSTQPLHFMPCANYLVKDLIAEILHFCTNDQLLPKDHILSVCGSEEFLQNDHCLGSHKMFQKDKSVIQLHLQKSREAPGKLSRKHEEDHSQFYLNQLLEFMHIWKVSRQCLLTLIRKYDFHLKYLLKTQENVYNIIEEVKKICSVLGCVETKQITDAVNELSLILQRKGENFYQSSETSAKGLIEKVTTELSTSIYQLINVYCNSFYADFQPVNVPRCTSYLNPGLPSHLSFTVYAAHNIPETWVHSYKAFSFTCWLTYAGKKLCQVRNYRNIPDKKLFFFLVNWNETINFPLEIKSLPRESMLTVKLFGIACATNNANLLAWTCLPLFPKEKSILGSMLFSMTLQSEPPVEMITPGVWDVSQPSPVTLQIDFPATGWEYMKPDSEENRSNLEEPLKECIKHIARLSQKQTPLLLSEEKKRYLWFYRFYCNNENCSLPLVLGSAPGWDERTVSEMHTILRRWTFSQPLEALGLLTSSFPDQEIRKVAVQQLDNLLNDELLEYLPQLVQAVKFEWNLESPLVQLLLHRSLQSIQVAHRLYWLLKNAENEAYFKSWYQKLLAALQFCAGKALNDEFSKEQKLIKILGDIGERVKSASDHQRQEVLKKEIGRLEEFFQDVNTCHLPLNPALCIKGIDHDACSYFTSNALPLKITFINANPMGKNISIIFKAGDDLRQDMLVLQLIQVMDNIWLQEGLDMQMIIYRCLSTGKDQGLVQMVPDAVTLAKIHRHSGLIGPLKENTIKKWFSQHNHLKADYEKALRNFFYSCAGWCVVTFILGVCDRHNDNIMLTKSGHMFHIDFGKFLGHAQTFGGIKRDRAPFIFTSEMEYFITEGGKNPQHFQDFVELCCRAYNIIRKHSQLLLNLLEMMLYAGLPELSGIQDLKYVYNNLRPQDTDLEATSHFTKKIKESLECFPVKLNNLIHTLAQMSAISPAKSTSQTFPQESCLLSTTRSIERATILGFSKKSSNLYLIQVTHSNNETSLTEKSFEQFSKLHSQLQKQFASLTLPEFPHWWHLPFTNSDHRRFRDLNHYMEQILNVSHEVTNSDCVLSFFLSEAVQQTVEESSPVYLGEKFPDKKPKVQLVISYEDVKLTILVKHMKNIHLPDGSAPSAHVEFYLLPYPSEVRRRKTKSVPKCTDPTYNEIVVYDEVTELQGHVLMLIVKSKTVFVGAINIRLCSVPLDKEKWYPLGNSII

[33] = tested on: Phosphatidylinositol 4,5-bisphosphate 3-kinase catalytic subunit alpha isoform (Homo sapiens), P42336 [H1047L]; settings: Compound concentration 1000.0 nM
Phosphatidylinositol 4,5-bisphosphate 3-kinase catalytic subunit alpha isoform (Homo sapiens), P42336 [H1047L], sequence (P42336 whole entry H1047L, canonical isoform): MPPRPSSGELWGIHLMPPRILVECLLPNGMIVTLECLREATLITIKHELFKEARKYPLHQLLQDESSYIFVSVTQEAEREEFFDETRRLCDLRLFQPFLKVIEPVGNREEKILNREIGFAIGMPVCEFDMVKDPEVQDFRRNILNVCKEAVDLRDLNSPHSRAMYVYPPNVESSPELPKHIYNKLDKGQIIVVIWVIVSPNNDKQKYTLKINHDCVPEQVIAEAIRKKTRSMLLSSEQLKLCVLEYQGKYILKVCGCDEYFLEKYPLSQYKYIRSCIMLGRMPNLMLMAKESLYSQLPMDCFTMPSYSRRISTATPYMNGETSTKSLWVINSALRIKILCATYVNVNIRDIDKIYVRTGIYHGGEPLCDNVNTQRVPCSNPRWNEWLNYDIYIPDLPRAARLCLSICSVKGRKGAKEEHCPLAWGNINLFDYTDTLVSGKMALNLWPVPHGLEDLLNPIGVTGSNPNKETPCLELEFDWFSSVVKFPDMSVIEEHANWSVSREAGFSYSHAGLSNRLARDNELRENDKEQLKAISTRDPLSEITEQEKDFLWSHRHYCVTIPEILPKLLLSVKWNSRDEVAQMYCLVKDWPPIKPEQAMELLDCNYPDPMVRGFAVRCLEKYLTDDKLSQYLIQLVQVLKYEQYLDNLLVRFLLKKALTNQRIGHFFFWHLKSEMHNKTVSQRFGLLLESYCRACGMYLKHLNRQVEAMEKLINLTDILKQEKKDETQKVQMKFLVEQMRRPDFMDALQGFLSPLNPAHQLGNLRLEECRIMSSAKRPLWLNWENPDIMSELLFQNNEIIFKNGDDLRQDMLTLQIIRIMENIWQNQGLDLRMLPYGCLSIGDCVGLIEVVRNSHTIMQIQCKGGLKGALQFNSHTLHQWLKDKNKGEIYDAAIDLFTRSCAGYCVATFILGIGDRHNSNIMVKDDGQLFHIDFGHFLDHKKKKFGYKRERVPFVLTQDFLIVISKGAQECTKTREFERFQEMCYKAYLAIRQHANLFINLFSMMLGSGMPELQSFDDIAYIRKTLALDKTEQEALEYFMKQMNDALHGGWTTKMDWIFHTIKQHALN

[34] = target: Phosphatidylinositol 4-phosphate 5-kinase type-1 gamma (Homo sapiens) (UniProt O60331); settings: Compound concentration 1000.0 nM
[35] = target: cAMP-dependent protein kinase catalytic subunit alpha (Homo sapiens) (UniProt P17612); settings: Compound concentration 1000.0 nM
[36] = target: Serine/threonine-protein kinase N2 (Homo sapiens) (UniProt Q16513); settings: Compound concentration 1000.0 nM
[37] = target: Serine/threonine-protein kinase D3 (Homo sapiens) (UniProt O94806); settings: Compound concentration 1000.0 nM
[38] = target: Tyrosine-protein kinase Srms (Homo sapiens) (UniProt Q9H3Y6); settings: Compound concentration 1000.0 nM
[39] = target: Mitogen-activated protein kinase kinase kinase 7 (Homo sapiens) (UniProt O43318); settings: Compound concentration 1000.0 nM
Mitogen-activated protein kinase kinase kinase 7 (Homo sapiens), sequence (O43318 whole entry): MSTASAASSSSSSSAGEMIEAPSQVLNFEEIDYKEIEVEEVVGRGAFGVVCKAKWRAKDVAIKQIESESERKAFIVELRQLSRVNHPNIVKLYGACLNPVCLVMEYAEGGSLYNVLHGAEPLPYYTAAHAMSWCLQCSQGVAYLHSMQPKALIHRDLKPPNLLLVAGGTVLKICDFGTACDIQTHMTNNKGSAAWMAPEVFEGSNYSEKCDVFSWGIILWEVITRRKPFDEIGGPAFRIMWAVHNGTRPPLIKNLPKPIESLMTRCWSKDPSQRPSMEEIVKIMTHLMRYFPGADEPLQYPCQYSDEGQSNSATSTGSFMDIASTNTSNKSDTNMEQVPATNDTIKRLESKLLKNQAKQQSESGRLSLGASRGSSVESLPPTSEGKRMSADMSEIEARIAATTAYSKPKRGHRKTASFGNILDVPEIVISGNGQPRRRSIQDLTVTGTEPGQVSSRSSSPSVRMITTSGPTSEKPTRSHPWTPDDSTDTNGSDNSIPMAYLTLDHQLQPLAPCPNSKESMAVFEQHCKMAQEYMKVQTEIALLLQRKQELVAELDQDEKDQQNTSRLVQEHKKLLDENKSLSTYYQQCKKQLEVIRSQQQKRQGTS

[40] = target: Vascular endothelial growth factor receptor 2 (Homo sapiens) (UniProt P35968); settings: Compound concentration 1000.0 nM
[41] = target: Phosphatidylinositol 3-kinase catalytic subunit type 3 (Homo sapiens) (UniProt Q8NEB9); settings: Compound concentration 1000.0 nM
[42] = target: Serine/threonine-protein kinase 32B (Homo sapiens) (UniProt Q9NY57); settings: Compound concentration 1000.0 nM
[43] = target: 5-hydroxytryptamine receptor 7 (Homo sapiens) (UniProt P34969); settings: Compound concentration 10.0 uM
[44] = target: Muscarinic acetylcholine receptor M4 (Homo sapiens) (UniProt P08173); settings: Compound concentration 10.0 uM
[45] = target: Sigma non-opioid intracellular receptor 1 (Homo sapiens, UniProt Q99720); settings: Compound concentration 10.0 uM

Q: For O=C(O)c1cc(-c2ccc(C3CCNCC3)cc2)c2ccc(-c3ccc(C(F)(F)F)cc3)cc2c1 [PPTN], which residual activity [1] is on record?
A: Its residual activity is 100%.

Q: And the residual activity [2]?
A: Its residual activity is 96%.

Q: And the residual activity [3]?
A: The residual activity was 100%.

Q: What about the residual activity [4] of the same molecule?
A: The residual activity was 100%.

Q: And the residual activity [5]?
A: The residual activity was 100%.

Q: What about the residual activity [6] of the same molecule?
A: Its residual activity is 100%.

Q: What about the residual activity [7] of the same molecule?
A: Its residual activity is 100%.

Q: What about the residual activity [8] of the same molecule?
A: Its residual activity is 100%.

Q: What about the residual activity [9] of the same molecule?
A: The residual activity was 100%.

Q: What about the residual activity [10] of the same molecule?
A: The residual activity was 100%.

Q: And the residual activity [11]?
A: The residual activity was 100%.

Q: And the residual activity [12]?
A: The residual activity was 100%.

Q: And the residual activity [13]?
A: Its residual activity is 100%.

Q: What about the residual activity [14] of the same molecule?
A: The residual activity was 68%.

Q: What about the residual activity [15] of the same molecule?
A: Its residual activity is 100%.

Q: And the residual activity [16]?
A: Its residual activity is 100%.

Q: And the residual activity [17]?
A: The residual activity was 100%.

Q: What about the residual activity [18] of the same molecule?
A: Its residual activity is 100%.

Q: What about the residual activity [19] of the same molecule?
A: The residual activity was 100%.

Q: And the residual activity [20]?
A: Its residual activity is 100%.

Q: What about the residual activity [21] of the same molecule?
A: Its residual activity is 100%.

Q: And the residual activity [22]?
A: The residual activity was 100%.

Q: And the residual activity [23]?
A: Its residual activity is 100%.

Q: And the residual activity [24]?
A: The residual activity was 83%.

Q: And the residual activity [25]?
A: The residual activity was 96%.

Q: What about the residual activity [26] of the same molecule?
A: Its residual activity is 98%.

Q: What about the residual activity [27] of the same molecule?
A: The residual activity was 100%.

Q: What about the residual activity [28] of the same molecule?
A: The residual activity was 100%.

Q: And the residual activity [29]?
A: Its residual activity is 100%.

Q: And the residual activity [30]?
A: Its residual activity is 98%.

Q: And the residual activity [31]?
A: The residual activity was 100%.

Q: And the residual activity [32]?
A: The residual activity was 100%.

Q: What about the residual activity [33] of the same molecule?
A: Its residual activity is 100%.

Q: What about the residual activity [34] of the same molecule?
A: The residual activity was 100%.

Q: What about the residual activity [35] of the same molecule?
A: The residual activity was 100%.

Q: And the residual activity [36]?
A: The residual activity was 100%.

Q: What about the residual activity [37] of the same molecule?
A: Its residual activity is 100%.

Q: And the residual activity [38]?
A: Its residual activity is 100%.

Q: And the residual activity [39]?
A: Its residual activity is 100%.

Q: And the residual activity [40]?
A: Its residual activity is 100%.

Q: And the residual activity [41]?
A: The residual activity was 100%.

Q: What about the residual activity [42] of the same molecule?
A: The residual activity was 100%.

Q: And the inhibition [43]?
A: The inhibition was 17.8%.

Q: And the inhibition [44]?
A: Its inhibition is -4.96%.

Q: And the inhibition [45]?
A: The inhibition was 84.9%.

Q: For Cc1c(C(=O)O)cc(-c2ccc(C3CCNCC3)cc2)c2ccc(-c3ccc(C(F)(F)F)cc3)cc12 [PPTN-NC], which residual activity [1] is on record?
A: Its residual activity is 100%.

Q: What about the residual activity [2] of the same molecule?
A: The residual activity was 94%.

Q: What about the residual activity [3] of the same molecule?
A: The residual activity was 100%.

Q: What about the residual activity [4] of the same molecule?
A: The residual activity was 100%.

Q: What about the residual activity [5] of the same molecule?
A: Its residual activity is 100%.

Q: What about the residual activity [6] of the same molecule?
A: The residual activity was 100%.

Q: What about the residual activity [7] of the same molecule?
A: The residual activity was 100%.

Q: And the residual activity [8]?
A: Its residual activity is 100%.

Q: What about the residual activity [9] of the same molecule?
A: Its residual activity is 100%.

Q: What about the residual activity [10] of the same molecule?
A: Its residual activity is 100%.

Q: And the residual activity [11]?
A: The residual activity was 100%.

Q: What about the residual activity [12] of the same molecule?
A: Its residual activity is 100%.

Q: What about the residual activity [13] of the same molecule?
A: Its residual activity is 100%.

Q: And the residual activity [14]?
A: Its residual activity is 71%.

Q: What about the residual activity [15] of the same molecule?
A: The residual activity was 100%.

Q: What about the residual activity [16] of the same molecule?
A: The residual activity was 100%.

Q: What about the residual activity [17] of the same molecule?
A: Its residual activity is 100%.

Q: What about the residual activity [18] of the same molecule?
A: Its residual activity is 100%.

Q: What about the residual activity [19] of the same molecule?
A: Its residual activity is 100%.

Q: What about the residual activity [20] of the same molecule?
A: The residual activity was 100%.

Q: What about the residual activity [21] of the same molecule?
A: The residual activity was 100%.

Q: What about the residual activity [22] of the same molecule?
A: Its residual activity is 100%.

Q: What about the residual activity [23] of the same molecule?
A: Its residual activity is 91%.

Q: What about the residual activity [24] of the same molecule?
A: Its residual activity is 98%.

Q: And the residual activity [25]?
A: The residual activity was 100%.

Q: What about the residual activity [26] of the same molecule?
A: Its residual activity is 100%.

Q: And the residual activity [27]?
A: The residual activity was 100%.

Q: What about the residual activity [28] of the same molecule?
A: The residual activity was 100%.

Q: What about the residual activity [29] of the same molecule?
A: Its residual activity is 100%.

Q: And the residual activity [30]?
A: The residual activity was 95%.

Q: And the residual activity [31]?
A: The residual activity was 100%.

Q: What about the residual activity [32] of the same molecule?
A: The residual activity was 100%.

Q: And the residual activity [33]?
A: The residual activity was 100%.

Q: And the residual activity [34]?
A: Its residual activity is 98%.

Q: What about the residual activity [35] of the same molecule?
A: The residual activity was 100%.

Q: What about the residual activity [36] of the same molecule?
A: Its residual activity is 100%.

Q: What about the residual activity [37] of the same molecule?
A: Its residual activity is 100%.

Q: And the residual activity [38]?
A: The residual activity was 100%.

Q: And the residual activity [39]?
A: Its residual activity is 100%.

Q: What about the residual activity [40] of the same molecule?
A: Its residual activity is 100%.

Q: What about the residual activity [41] of the same molecule?
A: The residual activity was 100%.

Q: And the residual activity [42]?
A: Its residual activity is 100%.

Q: And the inhibition [43]?
A: Its inhibition is -3.66%.

Q: What about the inhibition [44] of the same molecule?
A: The inhibition was -5.54%.

Q: What about the inhibition [45] of the same molecule?
A: Its inhibition is 91.8%.
